Assay [1] deals with GDP-bound KRAS wild-type protein (Homo sapiens, UniProt P01116). Briefly: Binding to KRAS by surface plasmon resonance (SPR), dissociation constant KD. To be noted: Single Cycle Kinetics. In short, it runs like this: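 GDP-loaded biotinylated Avi-tag RAS proteins (E. coli-expressed) captured on a Biotin CAPture chip at ~100–300 RU; single-cycle kinetics at 30°C, 100 µL/min, 75 s injections of rising compound concentrations. HBS pH 7.4 running buffer with 1 mM DTT, 10 mM MgCl2, 10 µM GDP, 4% DMSO. KD from 1:1 binding fit.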
Background: In SPR one partner is held on a chip, and binding of the other changes the refractive index at the surface.

Assay [2] has as its target GDP-bound NRAS wild-type protein (Homo sapiens, UniProt P01111). The assay is described as follows: Binding to NRAS by surface plasmon resonance (SPR), KD and KD ratio to KRAS. To be noted: ratio of KD for GDP-bound NRAS wild-type protein to KD for KRAS. An outline of the steps: (§1)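 Captured GDP-RAS (~100–300 RU) was exposed to increasing compound concentrations, 75 s per step, in running buffer with 10 µM GDP, 10 mM MgCl2 and 4% DMSO at pH 7.4.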

Assay [3] concerns human lung cancer strain NCI-H441. The assay is described as follows: NCI-H441 cell proliferation inhibitory activity (CellTiter-Glo, 4 days). In kind it is cell-based. To be noted: NCI-H441 cells, 4 days, read-out: NCl-H441 IC50. In short, it runs like this: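 Step one: dispense the test compound in serial DMSO dilutions. Step three: add the reagent and measure […].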
A general note: Cellular ATP, detected with luciferase, serves as a proxy for viable cell number.

Assay [4] concerns the target HRAS wild-type protein (Homo sapiens, UniProt P01112). Briefly: Binding to HRAS by surface plasmon resonance (SPR), KD and KD ratio to KRAS. As to conditions: ratio of KD for HRAS wild-type protein to KD for KRAS. An outline of the steps: as §1

As usually defined, the Kd is the concentration at which binding is half-saturated. Lower therefore signals higher affinity. One may read the IC50 as the concentration at which inhibition is half-maximal.

The structures appear in SMILES notation.

Chain of HRAS wild-type protein (P01112 whole entry): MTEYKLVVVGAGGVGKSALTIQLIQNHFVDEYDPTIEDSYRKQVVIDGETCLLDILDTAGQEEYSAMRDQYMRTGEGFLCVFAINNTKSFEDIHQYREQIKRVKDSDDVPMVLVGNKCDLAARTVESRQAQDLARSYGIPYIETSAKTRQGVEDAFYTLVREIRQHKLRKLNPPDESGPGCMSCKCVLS
Chain of GDP-bound KRAS wild-type protein (P01116 1-188 isoform P01116-2): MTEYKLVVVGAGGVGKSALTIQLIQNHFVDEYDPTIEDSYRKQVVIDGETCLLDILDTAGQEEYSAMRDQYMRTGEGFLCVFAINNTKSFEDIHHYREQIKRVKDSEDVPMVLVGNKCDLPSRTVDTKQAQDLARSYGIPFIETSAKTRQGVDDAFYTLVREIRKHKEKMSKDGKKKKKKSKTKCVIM
Chain of GDP-bound NRAS wild-type protein (P01111 whole entry): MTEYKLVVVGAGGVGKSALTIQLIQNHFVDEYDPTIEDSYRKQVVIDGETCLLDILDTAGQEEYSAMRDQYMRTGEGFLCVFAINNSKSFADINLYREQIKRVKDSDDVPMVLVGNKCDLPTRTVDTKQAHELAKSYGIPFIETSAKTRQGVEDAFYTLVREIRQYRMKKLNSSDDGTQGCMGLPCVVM

Molecule `CC[C@H](C)[C@@H]1NC(=O)[C@H](CC(C)C)N(C)C(=O)C[C@@H](C(=O)N(C)C)N(C)C(=O)[C@H](C2CCCC2)N(C)C(=O)C2(CCCC2)NC(=O)[C@@H]2CCN2C(=O)[C@H](CCc2cc(F)c(C(F)(F)F)c(F)c2)NC(=O)CN(C)C(=O)[C@H](Cc2ccc(C(F)(F)F)cc2)N2CC/C=C(/F)C[C@@H](C2=O)N(C)C(=O)CN(C)C1=O` [PP3521] returned a Kd in assay [1] of 2.3 nM. The “NRAS /KRAS” value in assay [2] is “B (a compound having 3 or more and less than 10 is denoted as B)”. In addition, the IC50 in assay [3] was 36.6 nM. In addition, the “HRAS /KRAS” value in assay [4] is “B (a compound having 3 or more and less than 10 is denoted as B)”.

For `CC[C@H](C)[C@@H]1NC(=O)[C@H](CC(C)C)N(C)C(=O)C[C@@H](C(=O)N(C)C)N(C)C(=O)[C@H](C2CCCC2)N(C)C(=O)C2(CCCC2)NC(=O)[C@@H]2CCN2C(=O)[C@H](CCc2cc(F)c(C(F)(F)F)c(F)c2)NC(=O)CN(C)C(=O)[C@H](Cc2ccc(C)cc2)N2CC/C=C(/F)C[C@@H](C2=O)N(C)C(=O)CN(C)C1=O` [PP3522], binding in assay [1] was put at a Kd of 2.6 nM. For the same molecule, in assay [2], the “NRAS /KRAS” value was “B (a compound having 3 or more and less than 10 is denoted as B)”. Also, the IC50 in assay [3] was 48.7 nM. In assay [4], the “HRAS /KRAS” value was “B (a compound having 3 or more and less than 10 is denoted as B)”.

For the molecule `CCO[C@@H]1C[C@H]2C(=O)NC(C)(C)C(=O)N(C)[C@@H](C3CCCC3)C(=O)N(C)[C@H](C(=O)N(C)C)CC(=O)N(C)[C@@H](CC(C)C)C(=O)N[C@@H]([C@@H](C)CC)C(=O)N(C)CC(=O)N(C)[C@H]3C/C(F)=C\CCN(C3=O)[C@@H](Cc3ccc(C)cc3)C(=O)N(C)CC(=O)N[C@@H](CCc3cc(F)c(C(F)(F)F)c(F)c3)C(=O)N2C1` [PP3523], in assay [1], the Kd is 0.59 nM. The “NRAS /KRAS” value in assay [2] is “B (a compound having 3 or more and less than 10 is denoted as B)”. Also, the IC50 in assay [3] was found to be 23.9 nM. Moreover, the “HRAS /KRAS” value in assay [4] was “B (a compound having 3 or more and less than 10 is denoted as B)”.

Regarding `CCC[C@H]1C(=O)N[C@@H]([C@@H](C)CC)C(=O)N2CCC[C@H]2C(=O)N(C)[C@H]2C/C(F)=C\CCN(C2=O)[C@@H](Cc2ccc(C)cc2)C(=O)N(C)CC(=O)N[C@@H](CCc2ccc(C(F)(F)F)c(OC)c2)C(=O)N2C[C@H](OCC)C[C@H]2C(=O)N(C)C2(CCC2)C(=O)N(C)[C@@H](C2CCCC2)C(=O)N(C)[C@H](C(=O)N(C)C)CC(=O)N1C` [PP3524], the affinity in assay [1], expressed as Kd, was 0.24 nM. In assay [2], the “NRAS /KRAS” value was “B (a compound having 3 or more and less than 10 is denoted as B)”. In addition, in assay [3], the IC50 is 6.9 nM. Further, the “HRAS /KRAS” value in assay [4] was “B (a compound having 3 or more and less than 10 is denoted as B)”.

In assay [1], `CCC[C@H]1C(=O)N[C@@H]([C@@H](C)CC)C(=O)N(C2CC2)CC(=O)N(C)[C@H]2C/C(F)=C\CCN(C2=O)[C@@H](Cc2ccc(C)cc2)C(=O)N(C)CC(=O)N[C@@H](CCc2ccc(C(F)(F)F)c(OC)c2)C(=O)N2C[C@H](OCC)C[C@H]2C(=O)N(C)C2(CCC2)C(=O)N(C)[C@@H](C2CCCC2)C(=O)N(C)[C@H](C(=O)N(C)C)CC(=O)N1C` [PP3525] registered a Kd of 0.22 nM. Also, the “NRAS /KRAS” value in assay [2] was “B (a compound having 3 or more and less than 10 is denoted as B)”. Further, the IC50 in assay [3] is 3.4 nM. The “HRAS /KRAS” value in assay [4] is “B (a compound having 3 or more and less than 10 is denoted as B)”.

With `CCC[C@H]1C(=O)N[C@@H]([C@@H](C)CC)C(=O)N2CCC[C@H]2C(=O)N(C)[C@H]2C/C(F)=C\CCN(C2=O)[C@@H](Cc2ccc(C)cc2)C(=O)N(C)CC(=O)N[C@@H](CCc2cc(F)c(C(F)(F)F)c(F)c2)C(=O)N2C[C@H](OCC)C[C@H]2C(=O)N(C)C2(CCC2)C(=O)N(C)[C@@H](C2CCCC2)C(=O)N(C)[C@H](C(=O)N(C)C)CC(=O)N1C` [PP3526], binding in assay [1] was put at a Kd of 0.29 nM. In addition, the “NRAS /KRAS” value in assay [2] was “B (a compound having 3 or more and less than 10 is denoted as B)”. For the same molecule, the IC50 in assay [3] was 10.9 nM. In addition, in assay [4], the “HRAS /KRAS” value was “B (a compound having 3 or more and less than 10 is denoted as B)”.

Source of the values: patent EP4603105A1, “PHARMACEUTICAL COMPOSITION CONTAINING CYCLIC COMPOUND HAVING SELECTIVE KRAS INHIBITORY EFFECT AGAINST HRAS AND NRAS” (CHUGAI SEIYAKU KABUSHIKI KAISHA, priority 2022, dated 2024).
